Laboratory results as given in article PMC4620497 (Scientific Reports, 2015).

How the values were obtained:
[1] = target: T1, DLK (Homo sapiens, UniProt Q12852); parameters: method as in earlier work; settings: Table S1; cited from earlier work
T1 sequence (Q12852 1-859): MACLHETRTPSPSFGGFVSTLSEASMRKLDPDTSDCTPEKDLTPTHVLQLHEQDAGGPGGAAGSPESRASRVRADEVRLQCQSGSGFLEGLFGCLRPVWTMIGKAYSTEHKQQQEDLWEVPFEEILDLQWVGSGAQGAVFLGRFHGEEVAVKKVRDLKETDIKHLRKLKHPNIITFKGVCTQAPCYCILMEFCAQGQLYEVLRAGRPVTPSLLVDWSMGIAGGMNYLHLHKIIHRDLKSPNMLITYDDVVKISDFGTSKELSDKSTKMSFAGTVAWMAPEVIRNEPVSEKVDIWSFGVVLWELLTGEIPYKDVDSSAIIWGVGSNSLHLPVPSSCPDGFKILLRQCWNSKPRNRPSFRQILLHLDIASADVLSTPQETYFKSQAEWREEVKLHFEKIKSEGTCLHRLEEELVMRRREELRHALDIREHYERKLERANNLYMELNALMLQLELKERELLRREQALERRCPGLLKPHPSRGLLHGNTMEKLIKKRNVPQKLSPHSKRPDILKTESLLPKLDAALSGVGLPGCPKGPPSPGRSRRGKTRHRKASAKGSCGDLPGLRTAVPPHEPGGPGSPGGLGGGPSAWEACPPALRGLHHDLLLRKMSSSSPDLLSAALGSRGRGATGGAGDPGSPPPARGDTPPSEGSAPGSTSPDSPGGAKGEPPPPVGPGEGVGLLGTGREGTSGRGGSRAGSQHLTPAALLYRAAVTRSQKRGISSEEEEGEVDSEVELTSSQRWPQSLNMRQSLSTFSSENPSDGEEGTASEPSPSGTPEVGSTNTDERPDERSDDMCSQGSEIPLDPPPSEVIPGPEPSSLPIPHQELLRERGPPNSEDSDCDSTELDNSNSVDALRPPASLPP

[2] = target: T2, GAK (Homo sapiens, UniProt O14976); assay: KINOMEscan panel screen; assay type: binding; settings: read-out: Percent Control(%)
T2 construct: purchased DiscoveRx KINOMEscan (Ambit Biosciences)
T2 sequence (O14976 whole entry): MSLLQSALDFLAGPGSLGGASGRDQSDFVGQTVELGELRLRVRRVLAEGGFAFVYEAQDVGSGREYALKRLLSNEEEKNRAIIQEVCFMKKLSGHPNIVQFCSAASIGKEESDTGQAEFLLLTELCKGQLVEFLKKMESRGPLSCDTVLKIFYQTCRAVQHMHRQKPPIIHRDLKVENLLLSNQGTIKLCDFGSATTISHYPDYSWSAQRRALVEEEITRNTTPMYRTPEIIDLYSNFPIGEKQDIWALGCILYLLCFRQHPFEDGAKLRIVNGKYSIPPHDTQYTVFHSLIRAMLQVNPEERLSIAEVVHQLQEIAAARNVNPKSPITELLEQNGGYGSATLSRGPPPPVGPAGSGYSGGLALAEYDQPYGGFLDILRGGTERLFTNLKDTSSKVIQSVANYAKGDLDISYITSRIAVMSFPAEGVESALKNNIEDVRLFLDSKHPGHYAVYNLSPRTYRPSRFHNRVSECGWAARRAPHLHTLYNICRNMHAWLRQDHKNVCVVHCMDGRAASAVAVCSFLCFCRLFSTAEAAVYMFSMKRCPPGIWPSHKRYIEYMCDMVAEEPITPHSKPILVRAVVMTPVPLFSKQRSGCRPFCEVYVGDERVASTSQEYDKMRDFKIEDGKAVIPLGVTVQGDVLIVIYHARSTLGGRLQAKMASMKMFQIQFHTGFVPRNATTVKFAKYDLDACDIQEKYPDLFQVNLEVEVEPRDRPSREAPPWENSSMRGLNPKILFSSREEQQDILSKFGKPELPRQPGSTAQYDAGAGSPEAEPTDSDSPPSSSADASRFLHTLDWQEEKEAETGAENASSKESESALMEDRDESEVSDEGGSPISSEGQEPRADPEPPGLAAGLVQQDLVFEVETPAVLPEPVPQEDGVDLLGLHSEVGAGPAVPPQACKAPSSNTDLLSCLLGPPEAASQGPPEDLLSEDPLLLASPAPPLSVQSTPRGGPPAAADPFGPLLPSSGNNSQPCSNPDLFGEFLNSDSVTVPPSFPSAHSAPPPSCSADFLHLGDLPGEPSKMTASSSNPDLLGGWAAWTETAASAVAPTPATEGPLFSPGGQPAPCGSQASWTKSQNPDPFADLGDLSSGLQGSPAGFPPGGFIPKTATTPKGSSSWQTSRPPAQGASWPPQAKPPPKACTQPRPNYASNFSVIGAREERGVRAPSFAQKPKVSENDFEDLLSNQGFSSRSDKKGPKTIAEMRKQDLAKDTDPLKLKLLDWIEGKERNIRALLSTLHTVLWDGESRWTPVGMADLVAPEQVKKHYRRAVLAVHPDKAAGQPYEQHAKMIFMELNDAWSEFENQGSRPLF

[3] = target: T3, ERK1 (Homo sapiens, UniProt P27361); assay: KINOMEscan panel screen; assay type: binding; settings: read-out: Percent Control(%)
T3 construct: purchased DiscoveRx KINOMEscan (Ambit Biosciences)
T3 sequence (P27361 whole entry): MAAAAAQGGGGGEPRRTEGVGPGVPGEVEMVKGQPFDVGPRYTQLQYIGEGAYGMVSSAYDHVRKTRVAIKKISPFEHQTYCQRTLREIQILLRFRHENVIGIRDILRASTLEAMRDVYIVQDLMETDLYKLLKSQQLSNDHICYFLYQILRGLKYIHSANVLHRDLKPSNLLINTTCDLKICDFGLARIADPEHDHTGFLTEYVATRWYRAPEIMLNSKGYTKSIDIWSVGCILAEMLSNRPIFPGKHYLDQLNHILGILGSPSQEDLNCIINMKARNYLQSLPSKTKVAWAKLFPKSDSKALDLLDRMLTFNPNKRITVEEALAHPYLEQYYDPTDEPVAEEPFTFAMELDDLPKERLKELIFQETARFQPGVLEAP

[4] = target: T4, DAPK3 (Homo sapiens, UniProt O43293); assay: KINOMEscan panel screen; assay type: binding; settings: read-out: Percent Control(%)
T4 construct: purchased DiscoveRx KINOMEscan (Ambit Biosciences)
T4 sequence (O43293 whole entry): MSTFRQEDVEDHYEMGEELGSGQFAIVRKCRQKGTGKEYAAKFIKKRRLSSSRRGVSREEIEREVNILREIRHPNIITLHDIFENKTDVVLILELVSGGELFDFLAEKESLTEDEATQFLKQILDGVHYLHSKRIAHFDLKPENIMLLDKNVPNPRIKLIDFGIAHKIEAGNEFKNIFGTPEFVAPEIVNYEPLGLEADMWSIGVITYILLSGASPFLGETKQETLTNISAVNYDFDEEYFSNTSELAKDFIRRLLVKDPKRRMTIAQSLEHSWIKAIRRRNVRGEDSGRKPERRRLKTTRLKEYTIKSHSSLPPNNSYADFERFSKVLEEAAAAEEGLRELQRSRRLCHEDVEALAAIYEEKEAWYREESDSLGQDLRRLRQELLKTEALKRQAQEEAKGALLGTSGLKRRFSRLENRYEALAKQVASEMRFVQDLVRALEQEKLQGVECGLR

[5] = target: T5, RPS6KA5(Kin.Dom.1-N-terminal) (Homo sapiens, UniProt O75582); assay: KINOMEscan panel screen; assay type: binding; settings: read-out: Percent Control(%)
T5 construct: RPS6KA5(Kin.Dom.1-N-terminal); purchased DiscoveRx KINOMEscan (Ambit Biosciences)
T5 sequence (O75582 49-318 limits assumed): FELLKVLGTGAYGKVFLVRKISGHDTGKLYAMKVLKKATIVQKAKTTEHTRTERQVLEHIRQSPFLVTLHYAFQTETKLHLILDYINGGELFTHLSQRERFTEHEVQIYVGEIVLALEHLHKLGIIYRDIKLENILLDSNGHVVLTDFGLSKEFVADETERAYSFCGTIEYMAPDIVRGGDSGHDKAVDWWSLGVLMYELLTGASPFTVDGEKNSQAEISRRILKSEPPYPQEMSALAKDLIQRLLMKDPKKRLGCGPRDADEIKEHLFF

[6] = target: T6, ABL1(T315I)-nonphosphorylated (Homo sapiens, UniProt P00519, T315I); assay: KINOMEscan panel screen; assay type: binding; settings: read-out: Percent Control(%)
T6 construct: purchased DiscoveRx KINOMEscan (Ambit Biosciences)

[7] = target: T7, RIPK2 (Homo sapiens, UniProt O43353); assay: KINOMEscan panel screen; assay type: binding; settings: read-out: Percent Control(%)
T7 construct: purchased DiscoveRx KINOMEscan (Ambit Biosciences)

[8] = target: T8, EPHB6 (Homo sapiens, UniProt O15197); assay: KINOMEscan panel screen; assay type: binding; settings: read-out: Percent Control(%)
T8 construct: purchased DiscoveRx KINOMEscan (Ambit Biosciences)
T8 sequence (O15197 32-1021): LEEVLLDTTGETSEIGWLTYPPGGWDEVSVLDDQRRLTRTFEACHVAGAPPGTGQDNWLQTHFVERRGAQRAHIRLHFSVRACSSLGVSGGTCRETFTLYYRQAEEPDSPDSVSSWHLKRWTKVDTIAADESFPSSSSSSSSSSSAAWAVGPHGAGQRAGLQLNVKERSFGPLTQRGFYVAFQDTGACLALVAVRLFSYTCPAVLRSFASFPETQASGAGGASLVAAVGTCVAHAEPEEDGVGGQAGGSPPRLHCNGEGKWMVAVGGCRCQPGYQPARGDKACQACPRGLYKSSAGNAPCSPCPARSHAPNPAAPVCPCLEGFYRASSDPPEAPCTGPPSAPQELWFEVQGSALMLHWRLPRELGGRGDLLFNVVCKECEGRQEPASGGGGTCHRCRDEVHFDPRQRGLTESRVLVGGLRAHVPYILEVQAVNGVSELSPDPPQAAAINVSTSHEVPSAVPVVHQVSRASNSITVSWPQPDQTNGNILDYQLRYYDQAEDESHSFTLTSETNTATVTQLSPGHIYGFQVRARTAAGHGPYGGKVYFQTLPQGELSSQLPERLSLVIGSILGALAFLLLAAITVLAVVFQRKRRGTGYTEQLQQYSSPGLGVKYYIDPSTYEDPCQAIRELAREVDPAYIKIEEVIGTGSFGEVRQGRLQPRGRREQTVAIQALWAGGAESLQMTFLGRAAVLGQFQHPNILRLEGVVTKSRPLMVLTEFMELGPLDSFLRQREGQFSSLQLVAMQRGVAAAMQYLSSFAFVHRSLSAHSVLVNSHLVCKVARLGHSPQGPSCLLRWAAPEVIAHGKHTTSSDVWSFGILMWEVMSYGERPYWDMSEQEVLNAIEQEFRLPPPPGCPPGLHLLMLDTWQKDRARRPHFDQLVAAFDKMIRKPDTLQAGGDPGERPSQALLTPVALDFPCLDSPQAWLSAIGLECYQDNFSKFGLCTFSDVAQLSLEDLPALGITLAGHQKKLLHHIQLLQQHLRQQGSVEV

[9] = target: T9, MLK1 (Homo sapiens, UniProt P80192); assay: KINOMEscan panel screen; assay type: binding; settings: read-out: Percent Control(%)
T9 construct: purchased DiscoveRx KINOMEscan (Ambit Biosciences)
T9 sequence (P80192 whole entry): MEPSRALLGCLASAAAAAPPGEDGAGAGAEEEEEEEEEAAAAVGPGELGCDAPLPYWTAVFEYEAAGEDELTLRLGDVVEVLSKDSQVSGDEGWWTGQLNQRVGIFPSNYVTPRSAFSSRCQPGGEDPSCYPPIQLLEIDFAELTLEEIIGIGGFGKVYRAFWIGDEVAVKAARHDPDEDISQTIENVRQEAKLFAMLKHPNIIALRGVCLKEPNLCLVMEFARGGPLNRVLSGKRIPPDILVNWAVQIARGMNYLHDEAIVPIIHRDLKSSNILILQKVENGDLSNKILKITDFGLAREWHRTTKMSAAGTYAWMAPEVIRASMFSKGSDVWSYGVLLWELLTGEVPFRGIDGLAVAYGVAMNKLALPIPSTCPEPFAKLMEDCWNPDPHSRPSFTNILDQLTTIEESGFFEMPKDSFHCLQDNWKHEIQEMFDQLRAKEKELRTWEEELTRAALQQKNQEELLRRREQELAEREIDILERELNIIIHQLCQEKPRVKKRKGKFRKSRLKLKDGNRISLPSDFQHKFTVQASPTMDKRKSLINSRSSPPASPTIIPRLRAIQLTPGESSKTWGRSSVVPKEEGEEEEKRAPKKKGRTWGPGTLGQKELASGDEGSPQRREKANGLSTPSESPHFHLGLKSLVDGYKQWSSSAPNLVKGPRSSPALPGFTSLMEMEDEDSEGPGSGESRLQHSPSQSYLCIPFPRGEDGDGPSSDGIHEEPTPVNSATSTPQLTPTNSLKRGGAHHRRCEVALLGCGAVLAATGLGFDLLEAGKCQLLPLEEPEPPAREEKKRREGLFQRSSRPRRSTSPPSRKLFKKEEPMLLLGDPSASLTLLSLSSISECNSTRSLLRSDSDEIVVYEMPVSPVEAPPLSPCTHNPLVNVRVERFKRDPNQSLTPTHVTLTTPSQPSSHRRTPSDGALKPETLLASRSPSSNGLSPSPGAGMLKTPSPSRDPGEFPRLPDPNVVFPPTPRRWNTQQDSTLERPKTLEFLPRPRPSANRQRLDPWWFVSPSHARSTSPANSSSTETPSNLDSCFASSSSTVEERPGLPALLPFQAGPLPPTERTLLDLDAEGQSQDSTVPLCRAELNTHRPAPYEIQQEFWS

[10] = target: T10, LATS1 (Homo sapiens, UniProt O95835); assay: KINOMEscan panel screen; assay type: binding; settings: read-out: Percent Control(%)
T10 construct: purchased DiscoveRx KINOMEscan (Ambit Biosciences)

[11] = target: T11, p38-delta (Homo sapiens, UniProt O15264); assay: KINOMEscan panel screen; assay type: binding; settings: read-out: Percent Control(%)
T11 construct: purchased DiscoveRx KINOMEscan (Ambit Biosciences)

[12] = system: KG-1 SP cells; assay: Hoechst 33342 side population (SP) cell assay; assay type: cell-based, human; settings: 5 μM, 48 h; vehicle 3.1%
Text: (§1) Flow cytometry and Hoechst 33342 dye efflux assays were used to examine the possible influences of SKLB-677 on leukemia SP cells. This method is based on the findings that stem cells and early progenitors are able to pump out Hoechst via the ATP-Binding Cassette (ABC) transporters. This property allows the observation of a cell population (called side population) that has low Hoechst fluorescence in the blue and red regions of the spectrum. In this study, the Hoechst SP cell assays were performed with human AML MV4-11 and KG-1 cells, as well as primary AML PBMCs. […] As shown in Fig. 4a and Supplementary Fig. S6, MV4-11, KG-1, and primary AML PBMCs contained about 22.3%, 3.1%, and 0.5% SP cells, respectively.
(§2) Supplementary Mat eri al and Methods […]
(§3) Reactions were monitored by thin la yer chrom atograph y (TLC) on M erck silica gel 60 F-254 thin la yer plates. 1H NMR and 13C NMR spectra were recorded on a Bruker AV -400 spectrometer at 400 MHz and 100 MHz, respectivel y. […]
(§4) Lo w -resolution and high-resolution mass spectral (MS) data were determined on an Agilent 1100 Series LCMS with UV detection at 254nm in low -reson ance electrospray mode (ESI). All final compounds were purified to >95% purity, as determined b y hi gh- performance liquid chromatograph y (HP LC). […]

[13] = system: primary AML PBMCs SP cells; assay: Hoechst 33342 side population (SP) cell assay; assay type: cell-based, human; settings: 5 μM, 48 h; vehicle 0.5%
Text: as §1, §2, §3, §4

[14] = target: T12, PKMYT1 (Homo sapiens, UniProt Q99640); assay: KINOMEscan panel screen; assay type: binding; settings: read-out: Percent Control(%)
T12 construct: purchased DiscoveRx KINOMEscan (Ambit Biosciences)
T12 sequence (Q99640 whole entry): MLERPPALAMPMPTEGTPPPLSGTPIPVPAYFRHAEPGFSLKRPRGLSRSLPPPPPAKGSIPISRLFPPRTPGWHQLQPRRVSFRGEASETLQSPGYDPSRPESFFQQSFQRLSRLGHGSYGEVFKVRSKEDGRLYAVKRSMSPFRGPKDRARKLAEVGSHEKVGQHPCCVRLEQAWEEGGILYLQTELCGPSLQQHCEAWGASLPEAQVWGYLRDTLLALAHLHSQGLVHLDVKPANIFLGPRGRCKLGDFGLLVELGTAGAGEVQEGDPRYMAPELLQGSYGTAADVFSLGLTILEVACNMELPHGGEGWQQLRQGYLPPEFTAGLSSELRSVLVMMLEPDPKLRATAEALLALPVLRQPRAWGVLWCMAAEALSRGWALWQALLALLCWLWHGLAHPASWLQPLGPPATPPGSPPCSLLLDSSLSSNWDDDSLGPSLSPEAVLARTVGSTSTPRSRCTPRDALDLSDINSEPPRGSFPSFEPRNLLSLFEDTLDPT

[15] = system: PLC/PRF/5; assay: MTT cell viability assay; settings: Homo sapiens, PLC-PRF-5, 72 h

For `O=C(Nc1ccc(Oc2ncnc3[nH]ncc23)cc1)Nc1ccc(Cl)c(C(F)(F)F)c1` [Compound 1, 1-(4-(1H-pyrazolo[3,4-d]pyrimidin-4-yloxy)phenyl)-3-(4-chloro-3-(trifluoromethyl)phenyl)urea], the IC50 [1] is given as > 10 µM.

Compound `CC(C)(C)c1cc(NC(=O)Nc2ccc(Oc3ncnc4[nH]ncc34)c(F)c2)no1` [SKLB-677, 1-(4-(1H-pyrazolo[3,4-d]pyrimidin-4-yloxy)-3-fluorophenyl)-3-(5-tert-butylisoxazol-3-yl)urea] has a remaining binding at 10 µM [2] of 100%, a remaining binding at 10 µM [3] of 76% and a remaining binding at 10 µM [4] of 71%. The remaining binding at 10 µM [5] was 66%, the remaining binding at 10 µM [6] was 3% and the remaining binding at 10 µM [7] was 0.75%. The remaining binding at 10 µM [8] was 2%, the remaining binding at 10 µM [9] was 42% and the remaining binding at 10 µM [10] was 47%. The remaining binding at 10 µM [11] was 10%, the SP cells [12] was “could almost eliminate SP cells” and the SP cells [13] was “could almost eliminate SP cells”. The remaining binding at 10 µM [14] was 100% and the IC50 [15] was > 10 µM.
